Assay results published in BindingDB's records for patent US10626094 (Sanford Burnham Prebys Medical Discovery Institute, 2020).

Biological target: T1, Low molecular weight phosphotyrosine protein phosphatase (Homo sapiens, UniProt P24666)
T1 sequence (P24666 whole entry): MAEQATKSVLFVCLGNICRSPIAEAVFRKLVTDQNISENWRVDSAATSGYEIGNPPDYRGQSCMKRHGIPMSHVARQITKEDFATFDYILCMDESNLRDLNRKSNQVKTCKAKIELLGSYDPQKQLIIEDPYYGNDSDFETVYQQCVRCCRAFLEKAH
Experiment: LMPTP Primary Screening Protocol
Experimental: 1. Prepare Reagents as described in section F. Recipe.2. Using LabCyte Echo, transfer 60 nL from 2 mM test compound source plate into assay plate Col. 5-48 (final concentration of test compounds is 20 μM). 60 nL of DMSO should be transferred to col. 1-4 for positive and negative control wells.3. Spin plates at 1000 rpm for 1 minute in centrifuge.4. Using the Beckman Coulter Bioraptr, add 3 μL/well of control buffer to columns 1 and 2.5. Using the Bioraptr, add 3 μL/well of enzyme solution to col. […] Using the Bioraptr, add 3 μL/well of substrate solution to col. 1-48.7. Spin plates at 1000 rpm for 1 minute in centrifuge.8. Incubate plates in the dark at room temperature for 50 minutes.9. Read plates on PerkinElmer Viewlux using a FI protocol.

SMILES | IC50 [µM]
O=C(c1ccc(-c2cc(NCCCC3CCCNC3)c3ccccc3n2)cc1)N1CCCC1 (stereo not given) [4-{4-[(3-piperidylpropyl)amino](2-quinolyl)}phenyl pyrrolidinyl ketone] | 0.802 to 5
c1ccc(-c2cc(NCCN3CCOCC3)c3ccccc3n2)cc1 [(2-morpholin-4-ylethyl)(2-phenyl(4-quinolyl))amine] | 0.802 to 5
CC(C)NC(=O)c1ccc(-c2cc(NCCCC3CCCNC3)c3ccccc3n2)cc1 (stereo not given) [N-(methylethyl)(4-{4-[(3-piperidylpropyl)amino](2-quinolyl)}phenyl)carboxamide] | 0.802 to 5

Next, values leading:

IC50 [µM] | SMILES
0.802 to 5 | CCN1CCN(Cc2ccc(NC3CC(c4ccc(OC)cc4)Nc4ccccc43)cc2)CC1 (stereo not given) [US10626094, Example I206]
> 5 | Clc1cccc(Cl)c1-c1cc(NCCCC2CCCNC2)c2ccccc2n1 (stereo not given) [US11220486, Compound I100]
